Assay results reported in patent EP4721767A1 (priority 2023, dated 2024).
Several values for one entry are separate records, joined by “and”; a condition that tells them apart may be missing. Equal values may be shown once.

T1: human B7-H3 naturally expressed on the surface of SKOV3 cells (human, UniProt Q5ZPR3 29-534)
T1 construct: whole, on cells; also called surface antigen of SKOV3 cells; B7-H3 on the surface of SKOV3 cells
T1 sequence (looked up): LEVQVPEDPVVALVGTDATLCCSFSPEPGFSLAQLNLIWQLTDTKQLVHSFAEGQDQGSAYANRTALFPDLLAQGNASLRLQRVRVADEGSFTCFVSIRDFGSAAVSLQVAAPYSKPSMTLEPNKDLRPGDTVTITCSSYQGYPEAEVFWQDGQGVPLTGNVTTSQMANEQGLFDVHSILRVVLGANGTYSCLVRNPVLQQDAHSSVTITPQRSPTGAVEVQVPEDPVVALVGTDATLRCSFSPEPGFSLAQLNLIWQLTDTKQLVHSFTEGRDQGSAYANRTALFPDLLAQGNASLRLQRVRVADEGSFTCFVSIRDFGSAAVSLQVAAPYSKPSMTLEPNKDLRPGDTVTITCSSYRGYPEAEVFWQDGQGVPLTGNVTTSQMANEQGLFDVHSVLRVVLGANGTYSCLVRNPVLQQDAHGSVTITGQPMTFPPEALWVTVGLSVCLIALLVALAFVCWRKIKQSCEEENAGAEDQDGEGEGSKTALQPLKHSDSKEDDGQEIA

T2: Recombinant human B7-H3 extracellular domain protein (UniProtKB-Q5ZPR3, amino acids 1-461, C-His tag) (human, UniProt Q5ZPR3 29-461)
T2 construct: range 1-461; The printed range 1-461 starts at residue 1 and so covers the signal peptide; also called human B7-H3 ECD-His; recombinant human B7-H3 ECD protein; not shown: C-terminal His tag
T2 sequence (looked up): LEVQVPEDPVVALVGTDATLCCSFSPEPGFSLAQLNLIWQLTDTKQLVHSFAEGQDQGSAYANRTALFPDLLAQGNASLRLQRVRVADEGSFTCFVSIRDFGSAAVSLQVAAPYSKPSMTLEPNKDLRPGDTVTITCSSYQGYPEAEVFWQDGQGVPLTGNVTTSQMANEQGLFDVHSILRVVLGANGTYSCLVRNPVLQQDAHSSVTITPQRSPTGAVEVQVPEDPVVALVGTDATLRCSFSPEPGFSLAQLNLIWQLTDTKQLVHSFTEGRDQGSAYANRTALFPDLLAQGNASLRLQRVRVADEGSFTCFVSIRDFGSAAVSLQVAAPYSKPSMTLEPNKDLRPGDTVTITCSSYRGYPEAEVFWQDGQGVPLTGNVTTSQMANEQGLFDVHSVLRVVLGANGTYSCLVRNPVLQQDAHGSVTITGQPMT


Tests used:
[1] = system: NCI-N87 human gastric cancer cells; test: cells; type: cell-based; conditions: NCI-N87, killing 4 days; for EC50: Homo sapiens, NCI-N87, 96 h
[2] = system: BxPC-3 human pancreatic adenocarcinoma cells; test: cells; type: cell-based; conditions: BxPC-3, killing 4 days; for EC50: Homo sapiens, BXPC-3, 96 h
[3] = system: HT29 human colon cancer cells; test: Cell killing activity of camptothecins (CCK-8); type: cell-based; conditions: HT29, killing 4 days; for EC50: Homo sapiens, HT-29, 96 h
Method: (§1) KB oral epithelial cancer cells (purchased from: ATCC) were cultured in DMEM medium supplemented with 10% FBS; NCI-N87 human gastric cancer cells (purchased from: ATCC) were cultured in RPMI1640 medium supplemented with 10% FBS; HT29 human colon cancer cells (purchased from: ATCC) were cultured in RPMI1640 medium supplemented with 10% FBS; and BxPC-3 human pancreatic adenocarcinoma cells (purchased from: ATCC) were cultured in RPMI1640 medium supplemented with 10% FBS.
(§2) Using corresponding media described above and in cell plates, the density of KB cells was adjusted to 2×10^4/mL; the density of NCI-N87 cells was adjusted to 5×10^4/mL; the density of HT29 cells was adjusted to 5×10^4/mL, and the cells were plated onto 96-well transparent flat bottom plates, at 100 µL/well, and cultured overnight; and the density of BxPC-3 cells was adjusted to 5×10^4/mL.
(§3) Samples to be detected were diluted to 20 µM with corresponding media, then 5-fold gradient dilution was performed, and 9 concentrations were obtained. A well having cells but with no any sample added was set as the well showing maximum cell growth; and a well having no cells was set as the well of medium background. The diluted samples were added into the cell plates, at 100 µL/well, which were then incubated in a CO2 incubator for 96 hours. After the incubation, CCK-8 (purchased from: DOJINDO LABORATORIES) prepared beforehand was added into the plates, at 20 µL/well, and after further 3 hours of incubation in the CO2 incubator, OD values at 450 nm were read on a microplate reader.
(§4) Data obtained was fitted to a four-parameter curve using software Prism7, and equation for calculating maximum killing is: maximum killing (%) = 1 - (OD450 value of the well showing maximum killing - OD450 value of the well of medium background) / (OD450 value of the well showing maximum cell growth - OD450 value of the cell of medium background) × 100%. Table 6. Results of comparative study on the activity of camptothecins

[4] = system: KB oral epithelial cancer cells; test: Cell killing activity of camptothecins (CCK-8); type: cell-based; conditions: killing 4 days; for EC50: 96 h
Method: as §1, §2, §3, §4

[5] = biological target: T1, human B7-H3 naturally expressed on the …; test: flow cytometry (MFI) on SKOV3 cells naturally expressing human B7-H3
[6] = biological target: T2, Recombinant human B7-H3 extracellular …; test: BLI (ForteBio Octet QKe), antibody on AHC probes, 60 nM antigen, 1:1 Langmuir fit

Row | EC50 [5] | Kd [6] | koff [6] | kon [6] | Molecule | EC50 [1] | EC50 [2] | other results
1 | – | – | – | – | CC[C@@]1(O)C(=O)OCc2c1cc1n(c2=O)Cc2c-1nc1ccc(N)c3c1c2CCS3(=O)=O [Compound 15] | 178 nM | 79.6 nM | –
2 | – | – | – | – | CC[C@@]1(O)C(=O)OCc2c1cc1n(c2=O)Cc2c-1nc1cc(F)c(N)c3c1c2CCS3 [Compound 26] | 1.02 nM | 1.11 nM | –
3 | – | – | – | – | CC[C@@]1(O)C(=O)OCc2c1cc1n(c2=O)Cc2c-1nc1ccc(N)c3c1c2C(C)(C)CC3 [Compound 1] | 21.9 nM | – | Maximum Killing (%) [3]: 91.9%; EC50 [3]: 43.4 nM; EC50 [4]: 52.3 nM; Maximum Killing (%) [4]: 97.6%
4 | – | – | – | – | CC[C@@]1(O)C(=O)OCc2c1cc1n(c2=O)Cc2c-1nc1ccc(N)c3c1c2CC[S@@+]3[O-] [Compound 14-P2] | 2000 nM | – | –
5 | – | – | – | – | CC[C@@]1(O)C(=O)OCc2c1cc1n(c2=O)Cc2c-1nc1ccc(N)c3c1c2C(F)(F)CO3 [Compound 31] | 8.59 nM | 4.42 nM | –
6 | – | – | – | – | CC[C@@]1(O)C(=O)OCc2c1cc1n(c2=O)Cc2c-1nc1cc(F)c(N)c3c1c2C(F)(F)CO3 [Compound 19] | 0.864 nM | 1.4 nM | Maximum Killing (%) [1]: 93.5%
7 | – | – | – | – | CC[C@@]1(O)C(=O)OCc2c1cc1n(c2=O)Cc2c-1nc1cc(F)c(N)c3c1c2C(F)(F)CS3 [Compound 27] | 1.75 nM | 1.52 nM | –
8 | – | – | – | – | CC[C@@]1(O)C(=O)OCc2c1cc1n(c2=O)Cc2c-1nc1ccc(N)c3c1c2CCS3 [Compound 12] | 8.43 nM | 2.15 nM | –
9 | – | – | – | – | CC[C@@]1(O)C(=O)OCc2c1cc1n(c2=O)Cc2c-1nc1ccc(N)c3c1c2C1CC1C3 (stereo partly drawn) [Compound 7] | 3.31 nM | 11.4 nM | –
10 | – | – | – | – | CC[C@@]1(O)C(=O)OCc2c1cc1n(c2=O)Cc2c-1nc1cc(F)c(C)c3c1c2[C@@H](NC(=O)CO)CC3 [Dxd, reference compound] | – | 33.7 nM | EC50 [3]: 133 nM; EC50 [4]: 138 nM; Maximum Killing (%) [1]: 93.3%; Maximum Killing (%) [2]: 93.1%
11 | – | – | – | – | CC[C@@]1(O)C(=O)OCc2c1cc1n(c2=O)Cc2c-1nc1cc(F)c(N)c3c1c2CCO3 [Compound 18] | 1.57 nM | 1.45 nM | –
12 | – | – | – | – | CC[C@@]1(O)C(=O)OCc2c1cc1n(c2=O)Cc2c-1nc1ccc(N)c3c1c2CC[S@+]3[O-] [Compound 14-P1] | 503 nM | – | –
13 | – | – | – | – | CC[C@@]1(O)C(=O)OCc2c1cc1n(c2=O)Cc2c-1nc1ccc(N)c3c1c2CCC3 [MWC-1, reference compound] | – | – | Maximum Killing (%) [3]: 89% and 89.9%; EC50 [4]: 15.7 nM; Maximum Killing (%) [4]: 98.6%; Maximum Killing (%) [1]: 93.3%
14 | 1.58 nM | 0.216 nM | 0.000143 s⁻¹ | 665000 M⁻¹ s⁻¹ | hz10B4 (antibody, V domains shown, Humanized anti-B7-H3 antibody prepared by the method of CN114573695A; also called parent hz10B4; hz10B4-VH×hz10B4-VL) VH: EVQLVQSGAEVKKPGASVKVSCKASGYTFTEYIMHWVRQAPGQGLEWMGGINPASGGTTYNQKFKGRVTMTRDTSISTAYMELSRLRSEDTAVYYCARKGKDYFDWYFDVWGQGTTVTVSS VL: DIQLTQSPSSLSASVGDRVTMTCSASSSVSYMHWYQQKPGKAPKLLIYDTSKLASGVPSRFSGSGSGTDFTLTISSLQPEDFATYYCQQWSSNPLTFGGGTKVEIK | – | – | –
15 | 1.89 nM | 0.352 nM | 0.000225 s⁻¹ | 639000 M⁻¹ s⁻¹ | hz10B4m1 (antibody, V domains shown, LCDR3 variant of hz10B4 (SSN→SSA); also called hz10B4-VH×hz10B4-Lm1-VL) VH: EVQLVQSGAEVKKPGASVKVSCKASGYTFTEYIMHWVRQAPGQGLEWMGGINPASGGTTYNQKFKGRVTMTRDTSISTAYMELSRLRSEDTAVYYCARKGKDYFDWYFDVWGQGTTVTVSS VL: DIQLTQSPSSLSASVGDRVTMTCSASSSVSYMHWYQQKPGKAPKLLIYDTSKLASGVPSRFSGSGSGTDFTLTISSLQPEDFATYYCQQWSSAPLTFGGGTKVEIK | – | – | –
16 | 1.45 nM | 0.381 nM | 0.000287 s⁻¹ | 755000 M⁻¹ s⁻¹ | hz10B4m2 (antibody, V domains shown, LCDR3 variant of hz10B4 (SSN→SAS); also called hz10B4-VH×hz10B4-Lm2-VL) VH: EVQLVQSGAEVKKPGASVKVSCKASGYTFTEYIMHWVRQAPGQGLEWMGGINPASGGTTYNQKFKGRVTMTRDTSISTAYMELSRLRSEDTAVYYCARKGKDYFDWYFDVWGQGTTVTVSS VL: DIQLTQSPSSLSASVGDRVTMTCSASSSVSYMHWYQQKPGKAPKLLIYDTSKLASGVPSRFSGSGSGTDFTLTISSLQPEDFATYYCQQWSASPLTFGGGTKVEIK | – | – | –
17 | 2.25 nM | 0.568 nM | 0.000336 s⁻¹ | 592000 M⁻¹ s⁻¹ | hz10B4m5 (antibody, V domains shown, LCDR3 variant of hz10B4 (SSN→SGS); also called hz10B4-VH×hz10B4-Lm5-VL) VH: EVQLVQSGAEVKKPGASVKVSCKASGYTFTEYIMHWVRQAPGQGLEWMGGINPASGGTTYNQKFKGRVTMTRDTSISTAYMELSRLRSEDTAVYYCARKGKDYFDWYFDVWGQGTTVTVSS VL: DIQLTQSPSSLSASVGDRVTMTCSASSSVSYMHWYQQKPGKAPKLLIYDTSKLASGVPSRFSGSGSGTDFTLTISSLQPEDFATYYCQQWSGSPLTFGGGTKVEIK | – | – | –
18 | 1.59 nM | 0.422 nM | 0.000281 s⁻¹ | 666000 M⁻¹ s⁻¹ | hz10B4m3 (antibody, V domains shown, LCDR3 variant of hz10B4 (SSN→SSQ); also called hz10B4-VH×hz10B4-Lm3-VL) VH: EVQLVQSGAEVKKPGASVKVSCKASGYTFTEYIMHWVRQAPGQGLEWMGGINPASGGTTYNQKFKGRVTMTRDTSISTAYMELSRLRSEDTAVYYCARKGKDYFDWYFDVWGQGTTVTVSS VL: DIQLTQSPSSLSASVGDRVTMTCSASSSVSYMHWYQQKPGKAPKLLIYDTSKLASGVPSRFSGSGSGTDFTLTISSLQPEDFATYYCQQWSSQPLTFGGGTKVEIK | – | – | –
19 | 16.9 nM | 0.831 nM | 0.00042 s⁻¹ | 505000 M⁻¹ s⁻¹ | hz10B4m4 (antibody, V domains shown, LCDR3 variant of hz10B4 (SSN→SSG); also called hz10B4-VH×hz10B4-Lm4-VL) VH: EVQLVQSGAEVKKPGASVKVSCKASGYTFTEYIMHWVRQAPGQGLEWMGGINPASGGTTYNQKFKGRVTMTRDTSISTAYMELSRLRSEDTAVYYCARKGKDYFDWYFDVWGQGTTVTVSS VL: DIQLTQSPSSLSASVGDRVTMTCSASSSVSYMHWYQQKPGKAPKLLIYDTSKLASGVPSRFSGSGSGTDFTLTISSLQPEDFATYYCQQWSSGPLTFGGGTKVEIK | – | – | –
